Source: publication PMC8994094 (Molecular Diversity, 2022)
“And” between values parts separate entries of the source, which are not always exact repeats. Equal entries are not always repeated.

Legend:
[1] = molecular target: AChE from Electrophorus electricus (Electrophorus electricus, UniProt O42275); test: AChE activity/kinetic assay; assay type: biochemical; conditions: for AChE Inhibition type: Lineweaver-Burk; for Selectivity index THA/AChE: ratio of KI of tacrine to KI of compound
hCA II = hCA II (Homo sapiens, UniProt P00918); test: hCA II esterase activity/kinetic assay; assay type: biochemical; conditions: for hCA II Inhibition type: Lineweaver-Burk; for Selectivity index AAZ/hCA II: ratio of KI of acetazolamide to KI of compound; for Selectivity index hCAI/hCA II: ratio of KI values
hCA I = hCA I (Homo sapiens, UniProt P00915); test: hCA I esterase activity/kinetic assay; assay type: biochemical; conditions: for hCA I Inhibition type: Lineweaver-Burk; for Selectivity index AAZ/hCA I: ratio of KI of acetazolamide to KI of compound; for Selectivity index hCA II/hCA I: ratio of KI values
hCA I, sequence (P00915 whole entry): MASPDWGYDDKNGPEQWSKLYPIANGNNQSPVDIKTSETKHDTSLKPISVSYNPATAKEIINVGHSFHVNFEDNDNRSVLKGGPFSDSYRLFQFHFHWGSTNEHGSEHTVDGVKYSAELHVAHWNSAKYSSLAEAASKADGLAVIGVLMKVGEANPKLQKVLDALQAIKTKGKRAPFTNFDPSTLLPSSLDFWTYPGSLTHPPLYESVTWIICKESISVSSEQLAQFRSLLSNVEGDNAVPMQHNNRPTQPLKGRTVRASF

[2] = tested on: cortex neuron cells and neuroblastoma SH-SY5Y cell line; test: MTT cytotoxicity test; assay type: cell-based; conditions: for cell viability at low concentrations: at 10 and 100 μM; for toxicity at effective concentrations on target enzymes: effective concentrations on AChE and hCAs

AChE from Electrophorus electricus, sequence (O42275 24-633): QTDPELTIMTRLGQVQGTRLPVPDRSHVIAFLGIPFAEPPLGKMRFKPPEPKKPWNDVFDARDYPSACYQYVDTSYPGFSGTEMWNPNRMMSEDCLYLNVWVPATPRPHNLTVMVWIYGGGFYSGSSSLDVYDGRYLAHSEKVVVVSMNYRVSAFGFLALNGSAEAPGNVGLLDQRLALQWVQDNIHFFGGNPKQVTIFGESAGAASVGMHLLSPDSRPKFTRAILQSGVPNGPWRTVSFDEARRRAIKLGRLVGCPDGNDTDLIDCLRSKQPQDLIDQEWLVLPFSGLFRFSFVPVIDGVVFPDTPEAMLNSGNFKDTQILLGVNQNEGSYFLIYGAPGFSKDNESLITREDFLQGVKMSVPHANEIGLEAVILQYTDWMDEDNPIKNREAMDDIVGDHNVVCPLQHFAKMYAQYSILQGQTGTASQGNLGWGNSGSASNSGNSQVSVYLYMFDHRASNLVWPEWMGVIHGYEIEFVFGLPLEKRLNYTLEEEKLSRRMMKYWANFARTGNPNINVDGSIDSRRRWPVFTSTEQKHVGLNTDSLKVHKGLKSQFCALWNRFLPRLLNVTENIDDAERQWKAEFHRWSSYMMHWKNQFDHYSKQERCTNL

Compound | Ki [1] [nM] | AChE Inhibition type [1] | Selectivity index THA/AChE [1] | Ki (hCA II) [nM] | hCA II Inhibition type (hCA II) | Selectivity index AAZ/hCA II (hCA II) | Selectivity index hCAI/hCA II (hCA II) | Ki (hCA I) [nM] | hCA I Inhibition type (hCA I) | Selectivity index AAZ/hCA I (hCA I) | Selectivity index hCA II/hCA I (hCA I) | cell viability at low concentrations [2] | toxicity at effective concentrations on target enzymes [2]
CCCCCCC(=O)NS(=O)(=O)c1ccc(-c2nnc(SCC)o2)cc1 [6g, N-([4-(5-(ethylthio)-1,3,4-oxadiazol-2-yl)phenyl]sulfonyl)heptanamide] | 49.7 ± 2.13 | Competitive | 3.12 | 30.71 ± 0.09 | Competitive | 3.20 | 0.75 | 23 ± 0.29 | Competitive | 19.09 | 1.33 |  | 
CCCCCC(=O)NS(=O)(=O)c1ccc(-c2nnc(SCC)o2)cc1 [6f, N-([4-(5-(ethylthio)-1,3,4-oxadiazol-2-yl)phenyl]sulfonyl)hexanamide] | 39.3 ± 1.13 | Competitive | 3.95 | 29.19 ± 0.1 | Competitive | 3.37 | 1.13 | 33.1 ± 0.47 | Competitive | 13.27 | 0.88 |  | 
CCCC(=O)NS(=O)(=O)c1ccc(-c2nnc(SCC)o2)cc1 [6d, N-([4-(5-(ethylthio)-1,3,4-oxadiazol-2-yl)phenyl]sulfonyl)butyramide] | 48.4 ± 1.75 | Competitive | 3.21 | 23.2 ± 0.26 | Competitive | 4.24 | 0.81 | 18.7 ± 0.21 | Competitive | 23.5 and 23.54 | 1.24 | high cell viability | non-toxic
CCSc1nnc(-c2ccc(S(=O)(=O)NC(=O)c3ccccc3)cc2)o1 [6a, N-([4-(5-(ethylthio)-1,3,4-oxadiazol-2-yl)phenyl]sulfonyl)benzamide] | 52.5 ± 1.27 | Competitive | 2.96 | 9.33 ± 0.13 | Competitive | 10.5 and 10.53 | 2.32 | 21.6 ± 0.25 | Competitive | 20.29 | 0.43 | high cell viability | non-toxic
CCSc1nnc(-c2ccc(S(=O)(=O)NC(=O)c3ccc(C)cc3)cc2)o1 [6b, N-([4-(5-(ethylthio)-1,3,4-oxadiazol-2-yl)phenyl]sulfonyl)-4-methylbenzamide] | 47 ± 1.71 | Competitive | 3.30 | 17.8 ± 0.23 | Competitive | 5.51 | 3.34 | 59.62 ± 0.53 | Noncompetitive | 7.37 | 0.30 |  | 
CCCCC(=O)NS(=O)(=O)c1ccc(-c2nnc(SCC)o2)cc1 [6e, N-([4-(5-(ethylthio)-1,3,4-oxadiazol-2-yl)phenyl]sulfonyl)pentanamide] | 41.2 ± 0.95 | Noncompetitive | 3.77 | 37.24 ± 0.14 | Competitive | 2.64 | 1.27 | 47.15 ± 0.36 | Competitive | 9.31 | 0.79 |  | 
CCCCCCCC(=O)NS(=O)(=O)c1ccc(-c2nnc(SCC)o2)cc1 [6h, N-([4-(5-(ethylthio)-1,3,4-oxadiazol-2-yl)phenyl]sulfonyl)octanamide] | 23.1 ± 0.77 | Competitive | 6.7 and 6.72 | 120.8 ± 0.34 | Noncompetitive | 0.81 | 0.29 | 34.6 ± 0.51 | Competitive | 12.69 | 3.49 | high cell viability | non-toxic
CCCCCCCCCCCC(=O)NS(=O)(=O)c1ccc(-c2nnc(SCC)o2)cc1 [6j, N-([4-(5-(ethylthio)-1,3,4-oxadiazol-2-yl)phenyl]sulfonyl)dodecanamide] | 46.7 ± 1.64 | Competitive | 3.33 | 29.4 ± 0.13 | Competitive | 3.34 | 1.05 | 31 ± 0.41 | Competitive | 14.16 | 0.95 |  | 
CCCCCCCCC(=O)NS(=O)(=O)c1ccc(-c2nnc(SCC)o2)cc1 [6i, N-([4-(5-(ethylthio)-1,3,4-oxadiazol-2-yl)phenyl]sulfonyl)nonanamide] | 47.6 ± 1.75 | Competitive | 3.27 | 112.7 ± 0.36 | Competitive | 0.87 | 0.34 | 38.4 ± 0.46 | Competitive | 11.44 | 2.93 |  | 
